These results are taken from patent EP2033955A1, “Urea derivatives of 1H-pyrazol-4-carboxylic acid with neutrophil chemotaxis inhibiting activity” (Universita' Degli Studi Di Genova, priority 2007, dated 2009).

The subject of experiment [1] is human peripheral blood neutrophils. The experiment in a line: Inhibition of fMLP-induced neutrophil chemotaxis (48-well microchemotaxis chamber, leading-front method). Type of experiment: cell-based. Conditions: for IC50: read-out: Inhibition of the migration of neutrophils induced by fMLP CI50; for Percentage in brackets after the fMLP CI50 bound: meaning of the percentage not explained. How it is done:
(§1) The inhibitory activity of the compounds according to the present invention towards fMLP- or CXCL8-induced chemotaxiswas evaluated following methods described in the literature (Giordano, C. et al., Bioorg. Med. Chem. 2006, 14, 2642 and documents cited in such article).
(§2) Cells were obtained from blood of healthy subjects and human peripheral blood neutrophils were purified by using the standard techniques of dextran sedimentation (Pharmacia, Uppsala, Sweden), centrifugation on Ficoll-Paque (Pharmacia) and hypotonic lysis of contaminating red blood cells. The cells were washed twice and resuspended in Krebs-Ringer (KRPG) phosphate, pH 7.4, at a final concentration of 50 x 10^6 cells/ml and kept at room temperature until used. The neutrophils were 98-100% viable, as determined using the Trypan blue exclusion test.
(§3) The f-MLP-OMe and the compounds to be tested (10-^2M) were dissolved in dimethylsulfoxide (DMSO) while CXCL8 (10^-5 M) was dissolved in water. All solutions were diluted in KRPG before use to obtain the final concentration required by the experimental protocol.
(§4) A random locomotion test was carried out with a 48-well microchemotaxis chamber (Bio Probe, Milan) and migration into the filter was evaluated by the leading-front method (Gennari, C. et al, Eur. J. Org. Chem. (1998), p. 945) by estimating the distance in micrometres which the leading edge of the cell migrated. The actual control random movement is 35 ± 3 µm SE of six separate experiments carried out in duplicate.
(§5) The directional movement or chemotaxis was measured with the same chamber used for the random locomotion, adding fMLP-OMe 10^-9 M or CXCL8 10^-8 M in the lower compartment.
(§6) Each compound to be tested was added in the upper compartment of the chemotaxis chamber, diluted at concentrations varying from 10^-15 to 10^-5 M with KRPG containing 1 mg/ml of bovine serum albumin (BSA; Orha Behringwerke, Germany).
(§7) The neutrophils were pre-incubated with the compounds to be tested ten minutes before the functional test. The data was expressed in terms of chemotactic index (C.I.), which is the ratio (migration towards test attractant - migration towards the buffer)/migration towards the buffer.
(§8) The antagonism was measured as C.I. in the absence (100%) and in the presence of the compound to be tested at different concentrations. CI50 values were calculated from the sigmoid dose-response curve by a nonlinear regression analysis (Graph Pad Prism, San Diego, USA).
(§9) The values are means of six separate experiments carried out twice. The standard errors are in the range of 0.02-0.09 C.I.

For experiment [2] the test system is unchanged. The experiment in a line: Inhibition of IL8 (CXCL8)-induced neutrophil chemotaxis (48-well microchemotaxis chamber, leading-front method). Format: cell-based. Conditions: CXCL8 10^-8 M in lower compartment, neutrophils pre-incubated ten minutes with compound, means of six experiments, read-out: Inhibition of the migration of neutrophils induced by IL8 CI50. As to the method:
as §1, §2, §3, §4, §5, §6, §7, §8, §9

Where [3] appears, read: Homo sapiens, Neutrophil, fMLP-OMe 10^-9 M in lower compartment, neutrophils pre-incubated ten minutes with compound, means of six experiments.
Where [4] appears, read: Homo sapiens, Neutrophil, fMLP-OMe 10^-9 M, unit µM, highest tested concentration 10^-5 M.
Setting [5] is: fMLP-OMe 10^-9 M in lower compartment, neutrophils pre-incubated ten minutes with compound, means of six experiments.

Take `CCOC(=O)c1cnn(CC(O)c2ccccc2)c1NC(=O)Nc1cccc2ccccc12` (centres unmarked) [Ia, 1-(2-hydroxy-2-phenylethyl)-5-[3-(1-naphthyl)ureido]-1H-pyrazole-4-carboxylic acid ethyl ester]: the IC50 in experiment [1] (setting [3]) worked out at 0.0078 ± 0.00052 µM; in experiment [2] (Homo sapiens, Neutrophil), 0.0076 ± 0.001 nM.
Turning to `CCOC(=O)c1cnn(CC(C)O)c1NC(=O)NC(C)C` (centres unmarked) [Ib, 1-(2-hydroxypropyl)-5-(3-isopropylureido)-1H-pyrazole-4-carboxylic acid ethyl ester], the IC50 in experiment [1] (setting [3]) turned out to be 0.09 ± 0.0093 µM.
On the same count and under the same terms, the figure for `CCOC(=O)c1cnn(CC(C)O)c1NC(=O)NCc1ccccc1` (centres unmarked) [Ic, 1-(2-hydroxypropyl)-5-(3-benzylureido)-1H-pyrazole-4-carboxylic acid ethyl ester] is 0.015 ± 0.0011 µM.
`CCOC(=O)c1cnn(CC(C)O)c1NC(=O)NN1CCN(Cc2ccccc2)CC1` (centres unmarked) [Id, 1-(2-hydroxypropyl)-5-[3-(4-benzyl)piperazinylureido]-1H-pyrazole-4-carboxylic acid ethyl ester]: the “Percentage in brackets after the fMLP CI50 bound” value in experiment [1] (fMLP-OMe 10^-9 M) was 63%. The IC50 in experiment [1] (fMLP-OMe 10^-9 M, unit µM, highest tested concentration 10^-5 M) was over 10 µM.
Take `CCOC(=O)c1cnn(CC(C)O)c1NC(=O)Nc1ccccc1F` (centres unmarked) [Ie, 1-(2-hydroxypropyl)-5-[3-(2-fluorophenyl)ureido]-1H-pyrazole-4-carboxylic acid ethyl ester]: the IC50 in experiment [1] (setting [3]) came out at 0.1 ± 0.0103 µM.
For the compound `CCOC(=O)c1cnn(CC(C)O)c1NC(=O)Nc1cccc(F)c1` (centres unmarked) [If, 1-(2-hydroxypropyl)-5-[3-(3-fluorophenyl)ureido]-1H-pyrazole-4-carboxylic acid ethyl ester], the IC50 in experiment [1] (setting [4]) was over 10 µM. In addition, the “Percentage in brackets after the fMLP CI50 bound” value in experiment [1] (fMLP-OMe 10^-9 M) is listed as 60%.
Consider `CCOC(=O)c1cnn(CC(C)O)c1NC(=O)Nc1ccc(F)cc1` (centres unmarked) [Ig, 1-(2-hydroxypropyl)-5-[3-(4-fluorophenyl)ureido]-1H-pyrazole-4-carboxylic acid ethyl ester], for which the IC50 in experiment [1] (setting [4]) is over 10 µM; in experiment [2] (Homo sapiens, Neutrophil), 0.2 ± 0.06 nM. In addition, the “Percentage in brackets after the fMLP CI50 bound” value in experiment [1] (fMLP-OMe 10^-9 M) worked out at 55%.
Regarding `CCOC(=O)c1cnn(CC(C)O)c1NC(=O)Nc1cccc2ccccc12` (centres unmarked) [Ih, 1-(2-hydroxypropyl)-5-[3-(1-naphthyl)ureido]-1H-pyrazole-4-carboxylic acid ethyl ester], in experiment [1] (setting [3]), the IC50 came out at 0.0098 ± 0.0009 µM.
Consider `CCOC(=O)c1cnn(CC(O)CC)c1NC(=O)NC(C)C` (centres unmarked) [Ii, 1-(2hydroxybutyl)-5-(3-isopropylureido)-1H-pyrazole-4-carboxylic acid ethyl ester], for which the IC50 in experiment [1] (setting [4]) is over 10 µM; in experiment [2] (Homo sapiens, Neutrophil), 0.0042 ± 0.0007 nM. The “Percentage in brackets after the fMLP CI50 bound” value in experiment [1] (fMLP-OMe 10^-9 M) worked out at 52%.
For the compound `CCOC(=O)c1cnn(CC(O)CC)c1NC(=O)NCc1ccccc1` (centres unmarked) [Ij, 1-(2-hydroxybutyl)-5-(3-benzylureido)-1H-pyrazole-4-carboxylic acid ethyl ester], the IC50 in experiment [1] (setting [4]) was over 10 µM; in experiment [2] (Homo sapiens, Neutrophil) it was 0.0074 ± 0.0002 nM. In experiment [1] (fMLP-OMe 10^-9 M), the “Percentage in brackets after the fMLP CI50 bound” value stood at 54%.
On to `CCOC(=O)c1cnn(CC(O)CC)c1NC(=O)NN1CCN(Cc2ccccc2)CC1` (centres unmarked) [Ik, 1-(2-hydroxybutyl)-5-[3-(4-benzyl)piperazinylureido)-1H-pyrazole-4-carboxylic acid ethyl ester], for which the IC50 in experiment [1] (setting [5]) is 2 ± 0.2 µM.
Consider `CCOC(=O)c1cnn(CC(O)CC)c1NC(=O)Nc1ccccc1F` (centres unmarked) [Il, 1-(2-hydroxybutyl)-5-[3-(2-fluorophenyl)ureido]-1H-pyrazole-4-carboxylic acid ethyl ester], for which the IC50 in experiment [1] (setting [3]) stood at 0.12 ± 0.012 µM; in experiment [2] (Homo sapiens, Neutrophil), 0.0016 ± 0.0002 nM.
The corresponding values for `CCOC(=O)c1cnn(CC(O)CC)c1NC(=O)Nc1cccc(F)c1` (centres unmarked) [Im, 1-(2-hydroxybutyl)-5-[3-(3-fluorophenyl)ureido]-1H-pyrazole-4-carboxylic acid ethyl ester] are 0.00019 ± 1e-05 µM and 0.36 ± 0.06 nM.
The corresponding values for `CCOC(=O)c1cnn(CC(O)CC)c1NC(=O)Nc1ccc(F)cc1` (centres unmarked) [In, 1-(2-hydroxybutyl)-5-[3-(4-fluorophenyl)ureido]-1H-pyrazole-4-carboxylic acid ethyl ester] are 0.0032 ± 0.0004 µM and 1.9 ± 0.13 nM.
The like results for `CCOC(=O)c1cnn(CC(O)CC)c1NC(=O)Nc1cccc2ccccc12` (centres unmarked) [Io, 1-(2-hydroxybutyl)-5-[3-(1-naphthyl)ureido]-1H-pyrazole-4-carboxylic acid ethyl ester] were, in that order, 0.012 ± 0.0012 µM and 9.6 ± 1 nM.
For the compound `CCCC(O)Cn1ncc(C(=O)OCC)c1NC(=O)NC(C)C` (centres unmarked) [Ip, 1-(2-hydroxypentyl)-5-(3-isopropylureido)-1H-pyrazole-4-carboxylic acid ethyl ester], the IC50 in experiment [1] (setting [3]) came to 0.02 ± 0.0022 µM; in experiment [2] (Homo sapiens, Neutrophil), 1 ± 0.05 nM.
In the case of `CCCC(O)Cn1ncc(C(=O)OCC)c1NC(=O)NCc1ccccc1` (centres unmarked) [Iq, 1-(2-hydroxypentyl)-5-(3-benzylureido)-1H-pyrazole-4-carboxylic acid ethyl ester], the IC50 in experiment [1] (setting [3]) was 0.00043 ± 5e-05 µM; in experiment [2] (Homo sapiens, Neutrophil) it was 0.0032 ± 0.0001 nM.
Take `CCCC(O)Cn1ncc(C(=O)OCC)c1NC(=O)NN1CCN(Cc2ccccc2)CC1` (centres unmarked) [Ir, 1-(2-hydroxypentyl)-5-[3-(4-benzyl)piperazinylureido)-1H-pyrazole-4-carboxylic acid ethyl ester]: the IC50 in experiment [1] (setting [5]) was found to be 0.0011 ± 0.0001 µM; in experiment [2], 0.09 ± 0.004 nM.
As to `COC(=O)[C@H](Cc1ccccc1)NC(=O)[C@H](CC(C)C)NC(=O)[C@H](CCSC)NC=O` [fMLP-OMe], the “chemotactic index (C.I.)” value in experiment [1] (chemoattractant alone at 10^-9) stood at 1.2.
